The record followed here is patent US7045648B2, “Compound as cholinesterase inhibitor and its isolation from fungus sporotrichum species” (priority 2002, dated 2006).

Molecules are shown by their SMILES.

For data set [1], the system named is serine esterase of the rat liver serum. The data set is described as follows: Serine esterase inhibition. Format: biochemical.
The target of data set [2] is T1, rat brain acetylcholinesterase (Rattus norvegicus, UniProt P37136).
T1 construct: from tissue; host or cells: rat brain
T1 sequence (P37136 32-614): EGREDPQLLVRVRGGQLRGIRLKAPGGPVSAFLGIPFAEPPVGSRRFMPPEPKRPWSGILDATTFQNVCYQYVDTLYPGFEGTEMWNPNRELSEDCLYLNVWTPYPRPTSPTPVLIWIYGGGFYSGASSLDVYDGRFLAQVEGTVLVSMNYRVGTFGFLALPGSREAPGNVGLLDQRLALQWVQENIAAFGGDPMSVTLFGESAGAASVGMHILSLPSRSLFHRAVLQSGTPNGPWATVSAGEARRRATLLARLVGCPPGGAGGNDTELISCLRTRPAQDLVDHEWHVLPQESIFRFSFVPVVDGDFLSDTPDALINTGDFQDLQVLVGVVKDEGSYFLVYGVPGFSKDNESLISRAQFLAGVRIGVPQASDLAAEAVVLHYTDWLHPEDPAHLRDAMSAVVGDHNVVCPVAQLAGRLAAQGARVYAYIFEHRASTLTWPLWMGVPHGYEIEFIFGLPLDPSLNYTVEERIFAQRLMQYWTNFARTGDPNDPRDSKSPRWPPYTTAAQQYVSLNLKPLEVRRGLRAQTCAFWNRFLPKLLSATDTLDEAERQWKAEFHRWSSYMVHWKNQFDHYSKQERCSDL
The data set is described as follows: Rat brain acetylcholinesterase inhibition (Ellman method). In kind it is biochemical. The note with it: rat brain enzyme; 15 min pre-incubation at 25° C.; acetyl thiocholine iodide 0.5 mM; pH 7.4; read-out: IC50 against rat brain AchE. As for the experimental part: Absorbance change at 412 nm is monitored every 30 seconds for 2 min in an UV-VIS Spectrophotometer. Inhibition is calculated relative to the solvent control. IC50 is determined by regression analysis.
Background: In Ellman's method for cholinesterases, released thiocholine reacts with DTNB.

Data set [3] relates to mosquito larvae culex quinquifasciatus. The data set is described as follows: Insecticidal activity against mosquito larvae. As to conditions: in water (70 ppm); exposed for 24 hrs. In kind it is in vivo. As for the experimental part: Yet another embodiment of the present invention, wherein said compound effective against mosquito larvae at an optimum concentration of 70 μg/ml water (70 ppm) when exposed for 24 hrs.
Still another embodiment of the present invention, wherein the insecticidal activity of the compound against mosquito larvae is selected from culex quinquifasciatus.

A short description of data set [4]: Solubility in organic solvents. As to conditions: in ethyl acetate, methanol and acetone. In kind it is physicochemical.
For data set [5], the target named is T2, acetylcholinesterase from erythrocytes (Homo sapiens, UniProt P22303).
T2 construct: from tissue; host or cells: erythrocytes
T2 sequence (P22303 32-617 isoform P22303-2 limits assumed): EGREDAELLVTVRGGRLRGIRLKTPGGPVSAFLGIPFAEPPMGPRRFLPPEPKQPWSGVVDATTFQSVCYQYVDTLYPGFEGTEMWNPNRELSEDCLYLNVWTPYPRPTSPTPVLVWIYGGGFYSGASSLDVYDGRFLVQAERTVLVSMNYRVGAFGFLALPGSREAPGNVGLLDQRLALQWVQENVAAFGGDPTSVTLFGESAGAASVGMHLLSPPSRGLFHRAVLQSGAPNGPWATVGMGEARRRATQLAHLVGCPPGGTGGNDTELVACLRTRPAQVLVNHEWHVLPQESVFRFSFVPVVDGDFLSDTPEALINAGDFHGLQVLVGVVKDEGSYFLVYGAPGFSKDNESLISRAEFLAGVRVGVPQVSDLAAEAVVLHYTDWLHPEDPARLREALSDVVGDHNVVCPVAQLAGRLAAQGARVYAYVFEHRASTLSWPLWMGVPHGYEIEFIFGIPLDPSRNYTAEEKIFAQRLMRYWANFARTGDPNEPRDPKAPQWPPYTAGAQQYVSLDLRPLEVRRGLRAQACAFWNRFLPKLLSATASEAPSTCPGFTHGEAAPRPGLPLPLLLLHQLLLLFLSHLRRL
The data set can be described thus: Erythrocyte acetylcholinesterase inhibition. The note with it: erythrocyte enzyme; read-out: IC50 against acetylcholinesterase from erythrocytes. Format: biochemical, rat.

The term IC50 denotes the concentration that gives 50% inhibition.

With `COc1ccc(C(=O)O)c(C(O)CCCCCCCC(=O)CC(C)O)c1` (centres unmarked) [Sporotricolone, 12-(2′-CARBOXY-5′-METHOXYPHENYL)-2,12-DIHYDROXY-DODECA-4-ONE], in data set [1], the “inhibition of serine esterase of the rat liver serum” value was “inhibitor”. The concentration for half-maximal inhibition (IC50) in data set [2] and in data set [5] was 20 µM in each case. In data set [3], the “optimum concentration effective against mosquito larvae” value is 70 µg/mL. Further, the Solubility result in data set [4] was “Highly soluble”.
